According to patent US11446388B2, “Amanitin antibody conjugates” ([…] Research GmbH, priority 2016, dated 2022):
*1 amine or outer side, *2 acyl side, *3 side chain or, on linkers, in order; H or OH if unused. Where a SMILES comes first, the peptide text is derived from it. Bridges are numbered along the chain shown (N, C = ends). [ ]: non-standard residue; d: D form. The star is where a group is joined. ξ: configuration not given here. X2 = CC(C)C(NC(=O)CCN1C(=O)C=CC1=O)C(=O)N[C@@H](C)C(=O)Nc1ccc(CN*)cc1; Trp(2-yl) = O=C([C@H](Cc1c([*:3])[nH]c2ccccc12)N[*:1])[*:2]; Ile(4R-OH,5-OH) = C[C@H]([C@H](N)C(=O)O)[C@@H](O)CO; X3 = CC([C@H](N[*:1])C(=O)[*:2])[C@@H](O)CO; X1 = O=C([C@@H]1CC(O)CN1[*:1])[*:2]; ξD = NC(CC(=O)O)C(=O)O; ξC = NC(CS)C(=O)O

How the values were obtained:
[1] = Western-Blot stability of reference Thiomab D265C conjugates in plasma and PBS; assay type: in vitro ADME; details: conjugated to reference Thiomab D265C; 37° C. in human plasma, mouse plasma and PBS for 0, 4 and 10 days
From the text: Detection was done with a polyclonal anti-amanitin antibody from rabbit and an anti-rabbit antibody conjugated to horseradish peroxidase.

SKBR-3 cells = test: Cytotoxicity on SKBR-3 after plasma or PBS stressing of reference Thiomab conjugates; assay type: cell-based; details: 4 days, SKBR-3 cells 96 h
Protocol: Test items were incubated in human plasma at 37° C. for 0 an 4 days. Cytotoxicity assay were performed on SKBR-3 cells for 96 h.
Test items were incubated in mouse plasma at 37° C. for 0 an 4 days. Cytotoxicity assay were performed on SKBR-3 cells for 96 h.
Test items were incubated in PBS at 37° C. for 0 an 4 days. Cytotoxicity assay were performed on SKBR-3 cells for 96 h. All ADCs show adequate stability to non-enzymatic environment.

[2] = Reactivity with cysteine in PBS buffer (RP-HPLC C18); assay type: physicochemical; details: 1 mg/mL, 10 mg/mL cysteine in PBS, pH 7.4 at 37° C., 24 h, 48 h and 6 d
Protocol: 1 mg/mL α-amanitin 10 mg/mL cysteine in PBS, pH 7.4 at 37° C. after 24 h, 48 h and 6 d RP-HPLC C18.
1 mg/mL β-amanitin 10 mg/mL cysteine in PBS, pH 7.4 at 37° C. after 24 h, 48 h and 6 d RP-HPLC C18.
1 mg/mL amanin 10 mg/mL cysteine in PBS, pH 7.4 at 37° C. after 24 h, 48 h and 6 d RP-HPLC C18.
1 mg/mL HDP 30.2105, 10 mg/mL cysteine in PBS, pH 7.4 at 37° C. after 24 h, 48 h and 6 d RP-HPLC C18; *impurity.
FIG. 7 summarizes the results from FIGS. 3 to 6; x axis: reaction time in hours; y axis: amount of remaining amatoxin variant in %.

MM.1S Luc, and KMS-11 = test: Timeline cytotoxicity experiment 24 to 120 hours on the two cell lines; assay type: cell-based, human; details: measured after 24, 46, 72, 96, and 120 hours
Protocol: Cytotoxicity potentials of J22.9-ISY-D265C-30.2115 was compared to the interchain conjugate J22.9-ISY-MMAF on two BCMA-positive MM cell lines (MM.1S Luc, and KMS-11). […] The efficacy of both compounds was compared in a timeline experiment on the two cell lines. Cytotoxicity was measured after 24, 46, 72, 96, and 120 hours (see FIGS. 26B+26C).

[3] = assay type: in vitro ADME; details: 37° C. for 0, 4, and 10 days in PBS, human, cynomolgus or mouse plasma
Protocol: Stability of J22.9-ISY-D265C-30.2115 and J22.9-ISY-D265C-30.1699 was tested following incubation at 37° C. for 0, 4, and 10 days in PBS, human, cynomolgus or mouse plasma.

MM.1S Luc xenograft [4] = test: Disseminating MM.1S Luc xenograft model, comparison with J22.9-ISY-MMAF; assay type: in vivo
Protocol: The antitumor activity of J22.9-ISY-D265C-30.2115 was compared to the interchain conjugate J22.9-ISY-MMAF in a disseminating intravenous MM.1S Luc xenograft model at doses of 1 and 4 mg/kg.

[5] = system: NCI-H929 subcutaneous xenograft; test: NCI-H929 subcutaneous xenograft, single dose; assay type: in vivo, mouse
Protocol: Once tumor volume reached 80 mm^3, mice (8 animals per group) were treated intravenously with single doses (2 or 4 mg/kg) of J22.9-ISY-D265C-30.2115 or J22.9-ISY-D265C-30.1699, or were treated with PBS as control.. Tumor volumes were monitored twice per week.
Antitumor activity of J22.9-ISY-D265C-30.2115 and J22.9-ISY-D265C-30.1699 was tested in a subcutaneous NCI-H929 (see Table 3 for details of cell line) mouse xenograft model.

[6] = system: NCI-H929 subcutaneous xenograft; test: NCI-H929 subcutaneous xenograft, repeated dose; assay type: in vivo, mouse
Protocol: Once tumor volume reached 80 mm^3, mice (9 animals per group) were treated intravenously either once per week (1×/week), every two weeks (1×/2 weeks) or every 3 weeks (1×/3 weeks) with J22.9-ISY-D265C-30.2115 (doses 0.25 mg/kg, 0.5 mg/kg or 1 mg/kg) or were treated with PBS as control. In addition, 2 mg/kg doses were applied twice per week (2×/week). Tumor volumes were monitored twice per week.
The efficacy of drug substance J22.9-ISY-D265C-30.2115 was further evaluated in a repeated dose setting in the subcutaneous NCI-H929 xenograft model. Compared to the single dose application described above, doses were reduced to 1, 0.5 and 0.25 mg/kg and applied either once per week (1×/week), every two weeks (1×/2 weeks) or every three weeks (1×/3 weeks).

[7] = system: BCMA-positive NCI-H929 cells; test: Plasma stability: cell-based cytotoxicity assay after incubation in plasma or PBS; set-up: species or system human
Protocol: J22.9-ISY-D265C-30.2115 (A) and J22.9-ISY-D265C-30.1699 (B) were incubated in PBS for control, or human, cynomolgus or mouse plasma for 0, 4, and 10 days at 37° C. and analysed for remaining cellular toxicity potential using BCMA-positive NCI-H929 cells.
Plasma stability of both ADC variants was confirmed in a cell-based cytotoxicity assay on BCMA-positive NCI-H929 cells (see Table 2) after incubation for 0, 4 and 10 days in PBS, human, cynomolgus or mouse plasma.

[8] = Dose-escalating tolerability study in non-human primates; assay type: in vivo, cynomolgus monkeys; details: repeated dosing of 3 mg/kg
Protocol: ALT: alanine transaminase; AST: aspartate transaminase; LDH: lactate dehydrogenase.
J22.9-ISY-D265C-30.2115 and J22.9-ISY-D265C-30.1699 were assessed for a dose-escalating tolerability study in cynomolgus monkeys. Groups of 3 animals were injected with J22.9-ISY-D265C-30.1699 at days 1 (0.3 mg/kg), 22 (1 mg/kg), and 44 (3 mg/kg), or with J22.9-ISY-D265C-30.2115 at days 1 (0.3 mg/kg), 21 (1 mg/kg), and 42, 64, 84, 106 (3 mg/kg each time point). Animals were monitored over time for biochemical and haematological blood parameters (see FIG. 25), urinalysis, body weight, food consumption, clinical signs and mortality. In addition, blood samples were collected for pharmacokinetic studies. At the end of the experiments tissue samples are used for histopathological examinations.

MM.1S Luc xenograft [9] = test: Disseminating intravenous MM.1S Luc xenograft model, single dose; assay type: in vivo, mouse
Protocol: (§1) When reaching a mean flux of 1.5×10^6-1×10^7 (10-14 days after implantation) 8-10 mice per group were treated with single doses (2 and 4 mg/kg) of J22.9-ISY-D265C-30.1699, J22.9-ISY-D265C-30.2115 or PBS as control. Luciferase activity was monitored by non-invasive bio-imaging twice weekly, 10 minutes after administration of luciferin (10 μl/g body weight). (B) Individual tumor growth curves for each animal are depicted. Individual Growth curves are shown for groups treated with 2 mg/kg (solid line) and 4 mg/kg (dashed line) of J22.9-ISY-D265C-30.2115.
as §1, with “doses (0.1, 0.3, 1” for “doses (2”, “and 2” for “and 4”, “of” for “of J22.9-ISY-D265C-30.1699,”, “depicted.” for “depicted. Individual”, “with 1” for “with 2”
The antitumor activity of J22.9-ISY-D265C-30.1699 and J22.9-ISY-D265C-30.2115 was further tested in a disseminating intravenous MM.1S Luc xenograft model at doses of 2 and 4 mg/kg. […]

RNA-polymerase II = RNA-polymerase II (Homo sapiens, UniProt P24928); details: read-out: KD of complex with RNA-polymerase II; cited from earlier work

For `CC[C@H](C)[C@@H]1NC(=O)CNC(=O)[C@H]2Cc3c([nH]c4cc(OCc5ccc(NC(=O)[C@H](C)NC(=O)[C@@H](NC(=O)CCN6C(=O)C=CC6=O)C(C)C)cc5)ccc34)[S@+]([O-])CC(NC(=O)CNC1=O)C(=O)N[C@@H](CC(N)=O)C(=O)N1CC(O)C[C@H]1C(=O)N[C@@H]([C@@H](C)[C@@H](O)CO)C(=O)N2` (some centres unmarked) [HDP 30.1699], the “stability / cross-links (Western-Blot)” value [1] was “considerable cross-links and loss of the amatoxin moiety”, the “cytotoxicity after plasma stressing” value (SKBR-3 cells; human plasma at 37° C.) was “remarkable loss of cytotoxicity” and the “cytotoxicity after plasma stressing” value (SKBR-3 cells; mouse plasma at 37° C.) was “remarkable loss of cytotoxicity”.
With `CC[C@H](C)[C@@H]1NC(=O)CNC(=O)[C@@H]2Cc3c([nH]c4ccccc34)SCC(NC(=O)CNC1=O)C(=O)NC(CC(=O)O)C(=O)N1CC(O)C[C@H]1C(=O)N[C@@H](C(C)[C@@H](O)CO)C(=O)N2` (some centres unmarked) [HDP 30.2105] (cyclo(GIG[ξC][ξD][X1][X3][Trp(2-yl)]); thioether 4-8) the reactivity with cysteine [2] was “complete absence of reactivity”.
With `CC[C@H](C)[C@@H]1NC(=O)CNC(=O)[C@@H]2Cc3c([nH]c4ccccc34)SCC(NC(=O)CNC1=O)C(=O)N[C@@H](CC(=O)NCc1ccc(NC(=O)[C@H](C)NC(=O)C(NC(=O)CCN3C(=O)C=CC3=O)C(C)C)cc1)C(=O)N1CC(O)C[C@H]1C(=O)N[C@@H]([C@@H](C)[C@@H](O)CO)C(=O)N2` (stereo partly drawn) [HDP 30.2115] (cyclo(D(X2)[X1][Ile(4R-OH,5-OH)][Trp(2-yl)]GIG[ξC]); thioether 4-8) the “stability / cross-links (Western-Blot)” value [1] was “high stability and significantly reduced cross-links”, the “cytotoxicity after plasma stressing” value (SKBR-3 cells; human plasma at 37° C.) was “still picomolar activity” and the “cytotoxicity after plasma stressing” value (SKBR-3 cells; mouse plasma at 37° C.) was “remains almost unchanged”.
For “J22.9-ISY-D265C-30.2115: Thiomab antibody J22.9-ISY-D265C conjugated to amatoxin-linker HDP 30.2115 via engineered cysteine 265, cleavable linker”, the “time at which full cytotoxicity is unfolded” value (MM.1S Luc, and KMS-11) was “after 96 and 120 hours”, the “stability (Western Blot)” value [3] was “particularly high stability” and the “time to regrowth of the tumor” value (MM.1S Luc xenograft [4]; 1 mg/kg) was 50 days. The “time to regrowth of the tumor” value (MM.1S Luc xenograft [4]; 4 mg/kg) was 100 days, the “time to initial response” value (MM.1S Luc xenograft [4]; 1 and 4 mg/kg (both doses)) was 10 days and the “efficacy compared with MMAF conjugate” value (MM.1S Luc xenograft [4]; in vivo) was “better efficacy in terms of tumor free survival”. The “anti-tumor efficacy compared to J22.9-ISY-D265C-30.1699” value ([5]; 2 mg/kg) was “slightly superior anti-tumor efficacy”, the “statistically significant body weight reduction” value ([5]; single doses 2 or 4 mg/kg) was “No statistically significant body weight reduction was observed” and the “initial response followed by regrowth of tumor” value ([5]; single treatment 2 mg/kg iv) was 6 of 8. For the same molecule, the complete tumor remission ([5]; single treatment 4 mg/kg iv) was 7 of 8, the tumor response ([6]; repeated 2 mg/kg dosing) was “complete tumor remission” and the tumor response ([6]; repeatedly applied doses of 1 mg/kg) was “tumor regression”. For the same molecule, the EC50 ([7]; PBS pH 7.4, day 0, 37° C.) was 0.24 nM, the EC50 ([7]; PBS pH 7.4, day 4, 37° C.) was 0.24 nM and the EC50 ([7]; PBS pH 7.4, day 10, 37° C.) was 0.41 nM. It also gave an EC50 ([7]; cynomolgus plasma, day 0, 37° C.) of 0.25 nM, an EC50 ([7]; cynomolgus plasma, day 4, 37° C.) of 0.25 nM and an EC50 ([7]; human plasma, day 0, 37° C.) of 0.28 nM. For the same molecule, the EC50 ([7]; human plasma, day 4, 37° C.) was 0.27 nM, the EC50 ([7]; human plasma, day 10, 37° C.) was 1 nM and the “influence of incubation on cytotoxic potential” value ([7]; incubation in PBS or plasma up to 10 days) was “almost no influence on the cytotoxic potential”. For the same molecule, the EC50 ([7]; mouse plasma, day 0, 37° C.) was 0.12 nM, the EC50 ([7]; mouse plasma, day 4, 37° C.) was 0.18 nM and the EC50 ([7]; mouse plasma, day 10, 37° C.) was 0.6 nM. The “liver enzymes or LDH on repeated dosing” value [8] was “did not result in further increase”, the tumor response (MM.1S Luc xenograft [9]; single dose application of 0.3 mg/kg) was “complete tumor eradication” and the “slight regrowth of tumor after initial response for over 90 days” value (MM.1S Luc xenograft [9]; single doses of 2 and 4 mg/kg) was 1 of 10.
For amanin, the reactivity with cysteine [2] was “reduced reactivity”.
In the case of amanitin, the Kd (RNA-polymerase II) is listed as 3 nM.
In the case of α-amanitin, the reactivity with cysteine [2] is reported as “strong reactivity”.
In the case of β-amanitin, the reactivity with cysteine [2] is reported as “strong reactivity”.
